Data published in publication PMC6005341, “Identification of “sarsasapogenin-aglyconed” timosaponins as novel Aβ-lowering modulators of amyloid precursor protein processing” (Chemical Science, 2016).

Legend:
[1] = test system: Mouse primary cortical neurons; parameters: method as in earlier work; conditions: ref J. Biol. Chem. (2005) 280: 5829, J. Biol. Chem. (2010) 285:28472, read-out: In vitro IC50 Aβ inhibition; cited from earlier work
[2] = test system: brain Aβ / amyloid in APPswe transgene; conditions: cited from earlier work
[3] = test system: HEK293 expressing APPswe; parameters: method as in J Neurosci Res (2012) 92: 108; conditions: ref J Neurosci Res (2012) 92: 108, read-out: In vitro IC50 Aβ inhibition; cited from earlier work
[4] = test system: Brain Aβ42 in APP/PS1 transgene; parameters: method as in J. Biol. Chem. (2010) 285:9110; conditions: diet with 0.35% for 15 weeks, ref J. Biol. Chem. (2010) 285:9110; cited from earlier work
[5] = test system: HEK293 expressing APP; parameters: method as in J. Biol. Chem. (2010) 285:9110; conditions: ref J. Biol. Chem. (2010) 285:9110, read-out: In vitro IC50 Aβ inhibition; cited from earlier work
[6] = test system: β-secretase; parameters: method as in PMID 23082924; conditions: rat retina; cited from earlier work
[7] = test system: SH-SY5Y Cells expressing APP; parameters: method as in J Neurosci. (2005) 25: 3032; J. Biol. Chem (2011) 286:14028; conditions: ref J Neurosci. (2005) 25: 3032, J. Biol. Chem (2011) 286:14028, read-out: In vitro IC50 Aβ inhibition; cited from earlier work
[8] = test system: Aβ42 production in N2A-APPswe cells; experiment: Aβ42 in conditioned medium of N2A-APPswe cells by ELISA, 18 h treatment; type: cell-based; conditions: N2a-APPswe, read-out: IC50 in lowering Aβ42 production, N2A-APPswe cells; mean ± standard deviation; n ≥ 3
Source text: Sigma-Aldrich Chemical Co. unless otherwise specified. SSG (1) was purchased from Wako Pure Chemical Industries, Ltd. Diosgenin (6), Dioscin (9), Polyphyllin D (10), Timosaponin BI (22) and Timosaponin BII (23) were purchased from Chengdu Must Bio-Technology Co.
Ltd. Yamogenin (7) was bought from Ambinter c/o Greenpharma while Smilagenin (24) was bought from Steraloids Inc. Substances dissolved in DMSO as stock solutions. Cell culture medium constituents were purchased from Life Technologies, Inc.
Cell culture: Neuro-2A cells expressing Swedish mutants of APP (N2A-APPswe provided by Prof. Yifan Han, The Hong Kong Polytechnic University)1 was cultured in minimal essential medium with 2 mM glutamine, 2 mM pyruvate and 10% fetal bovine serum. […]
Aβ ELISA: Aβ concentrations in conditioned medium were assayed using ELISA kits for […]

[9] = test system: Aβ42 levels in the brain; experiment: In vivo brain Aβ42 level by ELISA after oral dosing; conditions: 100 mg kg^–1 oral gavage, three times in 2 days, 3–5 month old C57BL/6 mice
Description: was performed at least three times. The lowest binding scores were computed and the conformations of the corresponding binding pose presented.
Quantum mechanics/Molecular mechanics. The binding between transmembrane and substrate was further optimized using the QM/MM approach and NWChem software. The quantum part (QM) included TAIII (total 116 atoms), while the rest of the system was modelled as the molecular mechanics (MM) level. The QM region was treated at the DFT level using the B3LYP method. The 6-31G* Pople basis set was employed for all the atoms.
The transmembrane was described with the AMBER parm99 force field. The binding structure was solvated in a cubic box with 6872 classical SPC/E water molecules. Three negative counter ions (Cl-) were added to neutralize the charges in the system. The structure was optimized by performing the BFGS algorithm for the QM part and the steepest descent algorithm for the MM part. The optimization of these two regions (QM and MM) was alternated until self-consistency was reached.
Animal experiments: Male C57BL/6N mice were housed in environmentally controlled room (temperature: 25 ± 2 °C, humidity: 50 ± 5%, 12-h light-dark cycle) in Laboratory Animal Unit, The University of Hong Kong and were freely access to food and water. TAIII, TAI SSG and compound 34 were dissolved in 5% Tween 80 and given to the mice by oral gavage at three repeated doses of 100 mg/kg in 48 hours. Mice were administrated with 5% Tween 80 (control group), TAIII, TAI SSG and 34. The experimental procedures were performed with the approval of Committee of Use of Live Animal for Teaching and Research of The University of Hong Kong. Blood (about 600-800 µL) was collected by cardiac puncture and added with 1/10 volume of Na2EDTA (20 mg/mL) to prevent coagulation. After centrifugation at 3000 g for 15 min at 4 °C, plasma was transferred to a centrifuge tube. […] Both plasma and brain samples were stored at -80 °C until they were analyzed. The Aβ42 levels were determined by Wako High Sensitive Aβx-42 ELISA kit. […]

[10] = Plasma and brain concentrations by LC-MS/MS; type: in vivo, mice
Description: Animal experiments: Male C57BL/6N mice were housed in environmentally controlled room (temperature: 25 ± 2 °C, humidity: 50 ± 5%, 12-h light-dark cycle) in Laboratory Animal Unit, The University of Hong Kong and were freely access to food and water. TAIII, TAI SSG and compound 34 were dissolved in 5% Tween 80 and given to the mice by oral gavage at three repeated doses of 100 mg/kg in 48 hours. Mice were administrated with 5% Tween 80 (control group), TAIII, TAI SSG and 34. The experimental procedures were performed with the approval of Committee of Use of Live Animal for Teaching and Research of The University of Hong Kong. Blood (about 600-800 µL) was collected by cardiac puncture and added with 1/10 volume of Na2EDTA (20 mg/mL) to prevent coagulation. After centrifugation at 3000 g for 15 min at 4 °C, plasma was transferred to a centrifuge tube. The brain was dissected into two hemispheres on ice, weighed and frozen in liquid nitrogen immediately. The left brain was homogenized with 1 mL of buffer containing 5 M guanidine HCl, 50 mM Tris HCl, pH 8.0, with protease inhibitor cocktail and AEBSF using a Polytron and the homogenates were allowed to stand at room temperature for 3h. Both plasma and brain samples were stored at -80 °C until they were analyzed. […]
B. Determination of timosaponin levels in mice plasma and brain by ultra-high pressure liquid chromatography tandem mass spectrometry
The UPLC-ESI-QTOF consists of a Waters Q-TOF PremierTM mass spectrometer (Micromass MS Technologies, Manchester, UK) operated in positive ion mode and a Waters ACQUITY TM UPLC system. The mass spectrometer conditions were optimized as follows: source […]
temperature, 120 °C; desolvation temperature, 500 °C; nebulization gas flow rate, 1000 L/h; cone gas flow rate, 20 L/h; capillary voltage, 2.5 kV; sampling cone voltage, 28V. The data were collected into two separate data channels with the instrument spending 0.5 s on data acquisition for each channel and a 0.1 s inter-channel delay. The mass spectrometer was calibrated by using the solution of sodium formate (0.5 mM) and the TOF scan range was from 100 to 1000 Da. In order to improve mass measurement accuracy a lock mass compound (50 pg µL−1 solution of leucine encephalin; m/z 556.2771) was continuously infused at a 0.5 mL min-1 using the built-in syringe pump of the instrument.
Sample was loaded into a Waters ACQUITY TM BEH C18 column (100 × 2.1 mm i.d., 1.7 µM) connected to a Waters ACQUITY TM BEH C18 guard column (5 × 2.1 mm i.d., 1.7 µM). The gradient elution system consisted of 0.1% formic acid in water (A) and 0.1% formic acid in acetonitrile (B). Separation was achieved by using: 30%-55% B from 0 to 3 min; 55-100% B from 3 to 6 min; 100% B from 6 to 12 min and returned to initial conditions and equilibrated for 3 minutes. The flow rate was 0.3 mL/min and the injection volume was 5 µL.
Standard preparation and sample preparation
Stock solution (10 µM ) of each analyte was prepared by dissolving in methanol. They were subject to serial dilution to give calibration curves of SSG 1 (plasma: y = 8.7485× - 0.0676; […]
each concentration of each analyte was transferred to a centrifuge tube and evaporated to dryness by a concentrator. Dioscin (20 µL , 10 µM) was added as an internal standard followed by methanol (130 µL) and control plasma (50 µL). The mixture was vortexed for 5 s and centrifuged (15000 × g) for 15 min. The supernatant was collected and evaporated to dryness by a concentrator. Methanol (100 µL) was added and then vortexed again for 10 s and centrifuged (15000 × g) for 20 min. The supernatant (5 µL) was subject to LC-MS/MS analysis. Analyte-treated plasma, control brain and analyte-treated brain were prepared in a […]
The acquisition and processing of data were performed by Masslynx (version 4.1) software.
Mass window of ±10 mDa and mass resolution of 9000 were set for both molecular ions and product ions. MS full scan was applied to acquire high abundant molecular ions [M+H]+ with […]

[11] = test system: N2A expressing APPswe; parameters: method as in J. Neurosci., (2005) 25:8807; conditions: ref J. Neurosci., (2005) 25:8807, read-out: In vitro IC50 Aβ inhibition; cited from earlier work
[12] = any metabolite, mice n = 6, three oral doses 100 mg/kg in two days

Compound: COc1cc(/C=C/C(=O)CC(=O)/C=C/c2ccc(O)c(OC)c2)ccc1O [Curcumin]
- IC50 [1]: > 20 µM
- Amyloid deposition ([2]; chow with 500 ppm for 22 weeks, ref J. Biol. Chem. (2005) 280: 5829, J. Biol. Chem. (2010) 285:28472): reduced

Compound: C/C=C1\[C@H]2C=C(C)C[C@]1(N)c1ccc(=O)[nH]c1C2 [Huperzine A]
- IC50 [3]: ~10 µM

Compound: Oc1ccc(/C=C/c2cc(O)cc(O)c2)cc1 [Resveratrol]
- Brain Aβ42 reduced by [4]: 20%
- IC50 [5]: ~20 µM

Compound: C[C@@H](CC[C@@]1(O)O[C@H]2C[C@H]3[C@@H]4CC[C@@H]5C[C@@H](O[C@@H]6O[C@H](CO)[C@H](O)[C@H](O)[C@H]6O[C@@H]6O[C@H](CO)[C@@H](O)[C@H](O)[C@H]6O)CC[C@]5(C)[C@H]4CC[C@]3(C)[C@H]2[C@@H]1C)CO[C@@H]1O[C@H](CO)[C@@H](O)[C@H](O)[C@H]1O [Timosaponin B II (23), timosaponin B II]
- up-regulation of β-secretase induced by ferric chloride [6]: inhibit

Compound: CC/C=C\C/C=C\C/C=C\C/C=C\C/C=C\C/C=C\CCC(=O)O [docosahexaenoic acid]
- IC50 [7]: ~100 µM
- Total Aβ reduced by ([2]; diet with 0.5% level for 5 months, ref J Neurosci. (2005) 25: 3032, J. Biol. Chem (2011) 286:14028): 70%

Compound: CC1CCC2(OC1)OC1CC3C4CCC5CC(OCC(=O)NCC6OC(O)C(O)C(O)C6O)CCC5(C)C4CCC3(C)C1C2C (stereo not drawn) [α-, β-OH SSG (34), α-, β-OH SSG]
- IC50 [8]: 7.3 ± 4 µM
- reduction of Aβ42 levels in the brain [9]: 87% ± 15%
- Brain Metabolite [10, 12]: Not detected
- Plasma Metabolite [10, 12]: Not detected
- Brain Precursor ([10]; mice n = 6, three oral doses 100 mg/kg in two days): 0.025 ± 0.041 µM
- Plasma Precursor ([10]; mice n = 6, three repeated oral doses 100 mg/kg in two days): 0.051 ± 0.072 µM

Compound: Epigallocatechin-3-gallate [Epigallocatechin-3-gallate (EGCG)]
- IC50 [11]: ~20 µM
